# Source: BindingDB's records for doi:10.1021/jm9608523 (Merck Sharp & Dohme Research Laboratories, 1997)
# Biological target: Gastrin/cholecystokinin type B receptor (Cavia porcellus)
# Assay: Inhibition of ligand binding to Cholecystokinin type B receptor from guinea pig cortical membrane.
row,IC50 [nM],Structure (SMILES)
1,1.5,"CCCN1C(=O)[C@H](NC(=O)Nc2cccc(C)c2)N=C([C@H]2CC(C)(C)CCN2)c2ccccc21 [1-[(R)-5-((R)-4,4-Dimethyl-piperidin-2-yl)-2-oxo-1-propyl-2,3-dihydro-1H-benzo[e][1,4]diazepin-3-yl]-3-m-tolyl-urea]"
2,41,"CCCN1C(=O)[C@H](NC(=O)Nc2cccc(C)c2)N=C([C@@H]2CCCCN2)c2ccccc21 [1-((R)-2-Oxo-5-(S)-piperidin-2-yl-1-propyl-2,3-dihydro-1H-benzo[e][1,4]diazepin-3-yl)-3-m-tolyl-urea]"
3,12,"Cc1cccc(NC(=O)N[C@@H]2N=C([C@H]3CCC(C)(C)CCN3)c3ccccc3N(C)C2=O)c1 [1-[(R)-5-((R)-5,5-Dimethyl-azepan-2-yl)-1-methyl-2-oxo-2,3-dihydro-1H-benzo[e][1,4]diazepin-3-yl]-3-m-tolyl-urea]"
4,26,"CCCN1C(=O)[C@H](NC(=O)Nc2cccc(C)c2)N=C([C@H]2CCC(C)(C)CCN2C)c2ccccc21 [1-[(R)-2-Oxo-1-propyl-5-((R)-1,5,5-trimethyl-azepan-2-yl)-2,3-dihydro-1H-benzo[e][1,4]diazepin-3-yl]-3-m-tolyl-urea]"
5,36,"CCCN1C(=O)[C@H](NC(=O)Nc2cccc(C)c2)N=C([C@H]2CCCCN2)c2ccccc21 [1-((R)-2-Oxo-5-(R)-piperidin-2-yl-1-propyl-2,3-dihydro-1H-benzo[e][1,4]diazepin-3-yl)-3-m-tolyl-urea]"

row,Structure (SMILES),IC50 [nM]
1,"CCN(CC)C(=O)CN1C(=O)[C@H](NC(=O)Nc2cccc(C)c2)N=C(c2cccc[n+]2C)c2ccccc21 [2-[(R)-1-Diethylcarbamoylmethyl-2-oxo-3-(3-m-tolyl-ureido)-2,3-dihydro-1H-benzo[e][1,4]diazepin-5-yl]-1-methyl-pyridinium; iodide]",18
2,"CCCN1C(=O)[C@H](NC(=O)Nc2cccc(C)c2)N=C([C@H]2CCCCN2C)c2ccccc21 [1-[(R)-5-((R)-1-Methyl-piperidin-2-yl)-2-oxo-1-propyl-2,3-dihydro-1H-benzo[e][1,4]diazepin-3-yl]-3-m-tolyl-urea]",54
